Test results from PubChem BioAssay (NCI).
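Each compound was tested at five concentrations against cells in 96-well plates for 48 hours. Definition used: TGI = concentration required for complete inhibition of growth.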

Tests used:
Test in all cases: DTP human tumour cell line panel, 48 h
SK-MEL-2 melanoma = tested on: SK-MEL-2 melanoma
MCF7 breast = tested on: MCF7 breast
UACC-62 melanoma = tested on: UACC-62 melanoma
HCT-116 colon = tested on: HCT-116 colon
BT-549 breast = tested on: BT-549 breast
TK-10 renal = tested on: TK-10 renal
DU-145 prostate = tested on: DU-145 prostate
EKVX NSCLC = tested on: EKVX NSCLC
HT29 colon = tested on: HT29 colon
UO-31 renal = tested on: UO-31 renal
M14 melanoma = tested on: M14 melanoma
OVCAR-4 ovarian = tested on: OVCAR-4 ovarian
COLO 205 colon = tested on: COLO 205 colon
SK-MEL-5 melanoma = tested on: SK-MEL-5 melanoma
SF-295 CNS = tested on: SF-295 CNS
KM12 colon = tested on: KM12 colon
RXF 393 renal = tested on: RXF 393 renal
K-562 leukemia = tested on: K-562 leukemia

## Cc1ccc(S(=O)(=O)c2ccsc2NC(=O)C(F)(F)F)cc1
SK-MEL-2 melanoma
  TGI: 94.7 µM
MCF7 breast
  TGI: > 100 µM
UACC-62 melanoma
  TGI: > 100 µM
HCT-116 colon
  TGI: 95.3 µM
BT-549 breast
  TGI: > 100 µM
TK-10 renal
  TGI: > 100 µM
DU-145 prostate
  TGI: > 100 µM
EKVX NSCLC
  TGI: > 100 µM
HT29 colon
  TGI: > 100 µM
UO-31 renal
  TGI: 96.1 µM
M14 melanoma
  TGI: > 100 µM
OVCAR-4 ovarian
  TGI: > 100 µM
COLO 205 colon
  TGI: 24.5 µM
SK-MEL-5 melanoma
  TGI: 44.4 µM
SF-295 CNS
  TGI: > 100 µM
KM12 colon
  TGI: > 100 µM

## Cc1cccc(C(C)C)c1NC(=O)/C(Cc1c([N+](=O)[O-])cccc1[N+](=O)[O-])=N/NC(=O)CC#N
RXF 393 renal
  TGI: > 100 µM
SK-MEL-2 melanoma
  TGI: > 100 µM
UACC-62 melanoma
  TGI: > 100 µM
HCT-116 colon
  TGI: > 100 µM
TK-10 renal
  TGI: > 100 µM
EKVX NSCLC
  TGI: > 100 µM
HT29 colon
  TGI: > 100 µM
UO-31 renal
  TGI: > 100 µM
M14 melanoma
  TGI: > 100 µM
K-562 leukemia
  TGI: > 100 µM
COLO 205 colon
  TGI: > 100 µM
SK-MEL-5 melanoma
  TGI: > 100 µM
SF-295 CNS
  TGI: > 100 µM
KM12 colon
  TGI: > 100 µM

## CN(C)/N=C(/CC(O)(C(F)(F)F)C(F)(F)F)c1ccc([N+](=O)[O-])cc1
RXF 393 renal
  TGI: > 100 µM
SK-MEL-2 melanoma
  TGI: > 100 µM
UACC-62 melanoma
  TGI: > 100 µM
HCT-116 colon
  TGI: > 100 µM
DU-145 prostate
  TGI: > 100 µM
EKVX NSCLC
  TGI: > 100 µM
HT29 colon
  TGI: > 100 µM
UO-31 renal
  TGI: > 100 µM
M14 melanoma
  TGI: > 100 µM
OVCAR-4 ovarian
  TGI: > 100 µM
K-562 leukemia
  TGI: > 100 µM
COLO 205 colon
  TGI: > 100 µM
SK-MEL-5 melanoma
  TGI: > 100 µM
SF-295 CNS
  TGI: > 100 µM
KM12 colon
  TGI: > 100 µM

## O=C(O)c1ccccc1/C=N/NC1=NCCN1
RXF 393 renal
  TGI: > 100 µM
SK-MEL-2 melanoma
  TGI: > 100 µM
MCF7 breast
  TGI: > 100 µM
UACC-62 melanoma
  TGI: > 100 µM
HCT-116 colon
  TGI: > 100 µM
BT-549 breast
  TGI: > 100 µM
TK-10 renal
  TGI: > 100 µM
EKVX NSCLC
  TGI: > 100 µM
HT29 colon
  TGI: > 100 µM
UO-31 renal
  TGI: > 100 µM
M14 melanoma
  TGI: > 100 µM
OVCAR-4 ovarian
  TGI: > 100 µM
K-562 leukemia
  TGI: > 100 µM
COLO 205 colon
  TGI: > 100 µM
SK-MEL-5 melanoma
  TGI: > 100 µM
SF-295 CNS
  TGI: > 100 µM
KM12 colon
  TGI: > 100 µM

## COC(=O)c1cc2c(cc1CC1Cc3cc4c(cc3C1=O)CCC4)CCC2 (stereo not given)
SK-MEL-2 melanoma
  TGI: > 100 µM
MCF7 breast
  TGI: > 100 µM
UACC-62 melanoma
  TGI: > 100 µM
HCT-116 colon
  TGI: > 100 µM
BT-549 breast
  TGI: > 100 µM
TK-10 renal
  TGI: > 100 µM
DU-145 prostate
  TGI: > 100 µM
EKVX NSCLC
  TGI: > 100 µM
HT29 colon
  TGI: > 100 µM
UO-31 renal
  TGI: > 100 µM
M14 melanoma
  TGI: > 100 µM
OVCAR-4 ovarian
  TGI: > 100 µM
K-562 leukemia
  TGI: > 100 µM
COLO 205 colon
  TGI: > 100 µM
SK-MEL-5 melanoma
  TGI: 42.5 µM
SF-295 CNS
  TGI: 89.2 µM
KM12 colon
  TGI: > 100 µM

## O=C1CCC2(c3ccccc3)Nc3ccncc3N12 (stereo not given)
SK-MEL-2 melanoma
  TGI: > 10 µM
MCF7 breast
  TGI: > 10 µM
UACC-62 melanoma
  TGI: > 10 µM
HCT-116 colon
  TGI: > 10 µM
BT-549 breast
  TGI: > 10 µM
TK-10 renal
  TGI: > 10 µM
DU-145 prostate
  TGI: > 10 µM
EKVX NSCLC
  TGI: > 10 µM
HT29 colon
  TGI: > 10 µM
UO-31 renal
  TGI: > 10 µM
M14 melanoma
  TGI: > 10 µM
OVCAR-4 ovarian
  TGI: > 10 µM
K-562 leukemia
  TGI: > 10 µM
SF-295 CNS
  TGI: > 10 µM
KM12 colon
  TGI: > 10 µM

## O=C1c2[nH]c3ccc(Br)cc3c2CCN1Cc1ccc(Cl)cc1
RXF 393 renal
  TGI: 36.4 µM
SK-MEL-2 melanoma
  TGI: 47.4 µM
MCF7 breast
  TGI: 35.7 µM
UACC-62 melanoma
  TGI: 28.2 µM
HCT-116 colon
  TGI: 23.5 µM
TK-10 renal
  TGI: 27.7 µM
DU-145 prostate
  TGI: 28.3 µM
EKVX NSCLC
  TGI: > 100 µM
HT29 colon
  TGI: > 100 µM
UO-31 renal
  TGI: 31.1 µM
M14 melanoma
  TGI: 28.5 µM
OVCAR-4 ovarian
  TGI: 34.3 µM
K-562 leukemia
  TGI: > 100 µM
COLO 205 colon
  TGI: 34.5 µM
SK-MEL-5 melanoma
  TGI: 23 µM
SF-295 CNS
  TGI: 26.2 µM
KM12 colon
  TGI: 36.1 µM

## NC(=S)N1N=C2c3ccccc3CC[C@@H]2[C@@H]1c1ccccc1
RXF 393 renal
  TGI: 41.5 µM
SK-MEL-2 melanoma
  TGI: > 48.5 µM
UACC-62 melanoma
  TGI: 26.1 µM
HCT-116 colon
  TGI: 19.1 µM
TK-10 renal
  TGI: > 68 µM
EKVX NSCLC
  TGI: > 81.8 µM
HT29 colon
  TGI: 15.6 µM
UO-31 renal
  TGI: > 94.6 µM
M14 melanoma
  TGI: 31.1 µM
OVCAR-4 ovarian
  TGI: > 100 µM
K-562 leukemia
  TGI: > 49.1 µM
COLO 205 colon
  TGI: 16.8 µM
SK-MEL-5 melanoma
  TGI: 27.1 µM
SF-295 CNS
  TGI: > 42.2 µM
KM12 colon
  TGI: 31 µM

## O=C1NC(=O)C(CCC(=O)c2ccc3ccccc3c2)C(=O)N1
RXF 393 renal
  TGI: > 100 µM
SK-MEL-2 melanoma
  TGI: > 100 µM
UACC-62 melanoma
  TGI: > 100 µM
HCT-116 colon
  TGI: > 100 µM
TK-10 renal
  TGI: > 100 µM
EKVX NSCLC
  TGI: > 100 µM
HT29 colon
  TGI: > 100 µM
UO-31 renal
  TGI: > 100 µM
M14 melanoma
  TGI: > 100 µM
OVCAR-4 ovarian
  TGI: > 100 µM
K-562 leukemia
  TGI: > 100 µM
COLO 205 colon
  TGI: > 100 µM
SK-MEL-5 melanoma
  TGI: > 100 µM
SF-295 CNS
  TGI: > 100 µM
KM12 colon
  TGI: > 100 µM

## CC(=O)Oc1cc(Cl)c(C)c2c1[C@H]1CC[C@]3(C)[C@@H](OC(C)=O)CC[C@H]3[C@@H]1CC2
RXF 393 renal
  TGI: > 100 µM
MCF7 breast
  TGI: > 100 µM
UACC-62 melanoma
  TGI: > 100 µM
HCT-116 colon
  TGI: > 100 µM
BT-549 breast
  TGI: > 100 µM
TK-10 renal
  TGI: > 100 µM
DU-145 prostate
  TGI: > 100 µM
EKVX NSCLC
  TGI: > 100 µM
HT29 colon
  TGI: > 100 µM
UO-31 renal
  TGI: > 100 µM
M14 melanoma
  TGI: > 100 µM
K-562 leukemia
  TGI: > 100 µM
SK-MEL-5 melanoma
  TGI: > 100 µM
SF-295 CNS
  TGI: > 100 µM
KM12 colon
  TGI: > 100 µM

## OC1(c2ccccc2)C2CCN(CC2)C1CN1CCOCC1 (stereo not given)
RXF 393 renal
  TGI: > 100 µM
SK-MEL-2 melanoma
  TGI: > 100 µM
MCF7 breast
  TGI: > 100 µM
UACC-62 melanoma
  TGI: > 100 µM
HCT-116 colon
  TGI: > 100 µM
TK-10 renal
  TGI: > 100 µM
DU-145 prostate
  TGI: > 100 µM
EKVX NSCLC
  TGI: > 100 µM
HT29 colon
  TGI: > 100 µM
UO-31 renal
  TGI: > 100 µM
M14 melanoma
  TGI: > 100 µM
OVCAR-4 ovarian
  TGI: > 100 µM
K-562 leukemia
  TGI: > 100 µM
COLO 205 colon
  TGI: > 100 µM
SK-MEL-5 melanoma
  TGI: > 100 µM
SF-295 CNS
  TGI: > 100 µM
KM12 colon
  TGI: > 100 µM

## O=[N+]([O-])c1ccc2c(c1)S(=O)(=O)N1Cc3ccccc3CCN21
RXF 393 renal
  TGI: > 100 µM
SK-MEL-2 melanoma
  TGI: > 100 µM
MCF7 breast
  TGI: > 100 µM
UACC-62 melanoma
  TGI: > 100 µM
HCT-116 colon
  TGI: > 100 µM
TK-10 renal
  TGI: > 100 µM
DU-145 prostate
  TGI: > 100 µM
EKVX NSCLC
  TGI: > 100 µM
HT29 colon
  TGI: > 100 µM
UO-31 renal
  TGI: > 100 µM
M14 melanoma
  TGI: > 100 µM
OVCAR-4 ovarian
  TGI: > 100 µM
K-562 leukemia
  TGI: > 100 µM
COLO 205 colon
  TGI: > 100 µM
SK-MEL-5 melanoma
  TGI: > 100 µM
SF-295 CNS
  TGI: > 100 µM
KM12 colon
  TGI: > 100 µM

## Cc1cc2c(cc1C(=O)CCC(=O)O)CC1(C2)Cc2cc(C)c(C(=O)CCC(=O)O)cc2C1
RXF 393 renal
  TGI: > 100 µM
SK-MEL-2 melanoma
  TGI: > 100 µM
MCF7 breast
  TGI: > 100 µM
HCT-116 colon
  TGI: > 100 µM
TK-10 renal
  TGI: > 100 µM
DU-145 prostate
  TGI: > 100 µM
EKVX NSCLC
  TGI: > 100 µM
HT29 colon
  TGI: > 100 µM
UO-31 renal
  TGI: > 100 µM
M14 melanoma
  TGI: > 100 µM
OVCAR-4 ovarian
  TGI: > 100 µM
K-562 leukemia
  TGI: > 100 µM
COLO 205 colon
  TGI: > 100 µM
SK-MEL-5 melanoma
  TGI: > 100 µM
SF-295 CNS
  TGI: > 100 µM
KM12 colon
  TGI: > 100 µM

## COC(=O)/C=C(/C=C1/C(C#N)=C(N)N(c2ccc(Cl)cc2)C1(C)/C(=C/C(=O)OC)C(=O)OC)C(=O)OC (stereo not given)
SK-MEL-2 melanoma
  TGI: > 100 µM
MCF7 breast
  TGI: > 100 µM
UACC-62 melanoma
  TGI: > 100 µM
HCT-116 colon
  TGI: > 100 µM
TK-10 renal
  TGI: > 100 µM
DU-145 prostate
  TGI: > 100 µM
EKVX NSCLC
  TGI: > 100 µM
HT29 colon
  TGI: > 100 µM
UO-31 renal
  TGI: > 100 µM
M14 melanoma
  TGI: > 100 µM
OVCAR-4 ovarian
  TGI: > 100 µM
K-562 leukemia
  TGI: 50.5 µM
COLO 205 colon
  TGI: > 100 µM
SF-295 CNS
  TGI: > 100 µM
